# Assay results taken from PMC6263664 (CPT: Pharmacometrics & Systems Pharmacology, 2018).
# Several values for one entry are separate records, joined by “and”; a condition that tells them apart may be missing. Identical values can stand only once. Like-named read-outs stand apart in the source and are kept apart here. Marks after values point to notes of the source that are not given here.
# Experiments:
# [1] = Updated stage 1 / stage 2 population pharmacokinetic analysis; type: in vivo, human; conditions: for ACS subjects (θ13) effect on Vc/F, Estimate ± SE / Evening dosing (AM/PM = 2) (θ10) effect on ka, Estimate ± SE / NVAF subjects (θ12) effect on Vc/F, Estimate ± SE: fractional change; for Vd/F: Vc/F (θ3) apparent volume of distribution of the central compartment, Estimate ± SE; for D_WTB (θ11) baseline body weight effect on Vc/F, Estimate ± SE: power coefficient
# [2] = cited from earlier work
# [3] = vs normal renal function, phase I; cited from earlier work
# [4] = tested on: P‐glycoprotein (P‐gp); conditions: cited from earlier work
# [5] = tested on: cytochrome P450 3A4 (CYP3A4); conditions: cited from earlier work
# [6] = type: in vivo, human
# [7] = cited from earlier work; remark: listed apart in the source
# [8] = tested on: breast cancer resistance protein; conditions: cited from earlier work
# [9] = relative to the typical 70‐kg NVAF subject
# [10] = fractional change, stage 2 final ad hoc model
# [11] = power coefficient, stage 2 final ad hoc model
# [12] = relative to non‐Asian typical patients with NVAF
smiles,measurement,setting,value
COc1ccc(-n2nc(C(N)=O)c3c2C(=O)N(c2ccc(N4CCCCC4=O)cc2)CC3)cc1 [apixaban],"predicted increase in AUCss, moderate renal impairment","[1]; NVAF, cCrCL 40 mL/minute, compared with normal renal function",28%
same,"predicted increase in AUCss, mild renal impairment","[1]; NVAF, cCrCL = 65 mL/minute, compared with normal renal function",9%
same,increase in exposure with strong/moderate inhibitors of both CYP3A4 and P‐gp,[1]; PPK estimate,~ 17%
same,"CLR/F (θ2) apparent renal clearance, Estimate ± SE","[1]; cCrCL reference 80 mL/minute, stage 2 final model",1.57 ± 0.117 L/h
same,"reduced CL/F, ACS",[1]; compared with healthy subjects,21.5%
same,"reduced CL/F, Asian race",[1]; compared with non‐Asian subjects,11.9%
same,"ACS subjects (θ13) effect on Vc/F, Estimate ± SE",[1]; stage 2 final model,−0.180 ± 0.0446
same,"Evening dosing (AM/PM = 2) (θ10) effect on ka, Estimate ± SE",[1]; stage 2 final model,−0.433 ± 0.0236
same,"NVAF subjects (θ12) effect on Vc/F, Estimate ± SE",[1]; stage 2 final model,−0.0405 ± 0.0491
same,"ACS subjects (θ13) effect on Vc/F, Estimate ± SE",[1]; updated stage 1 final model,−0.177 ± 0.0449
same,"Evening dosing (AM/PM = 2) (θ10) effect on ka, Estimate ± SE",[1]; updated stage 1 final model,−0.434 ± 0.0234
same,"NVAF subjects (θ12) effect on Vc/F, Estimate ± SE",[1]; updated stage 1 final model,−0.0217 ± 0.0501
same,effect of strong CYP3A4/P‐gp inducers on CL/F,"[1]; full stage 2 model, not included in final model",very small and poorly estimated
same,CL renal,"[1]; human, plasma, oral",26.2 mL/min
same,Vd/F,"[1]; human, plasma, oral, stage 2 final model",30 ± 0.971 L
same,Vd/F,"[1]; human, plasma, oral, updated stage 1 final model",29.8 ± 0.981 L
same,impact of Asian race on exposure,[1]; in vivo,< 15%
same,"D_WTB (θ11) baseline body weight effect on Vc/F, Estimate ± SE",[1]; stage 2 final model,0.790 ± 0.0645
same,"D_WTB (θ11) baseline body weight effect on Vc/F, Estimate ± SE",[1]; updated stage 1 final model,0.806 ± 0.0649
same,decrease in ka with administration in the evening,[1]; relative to administration in the morning or afternoon,43%
same,increase in Vc/F for a 90‐kg subject,[1]; [9],22%
same,reduction in Vc/F for a 50‐kg subject,[1]; [9],23.3%
same,"Logit for reduction in Frel at 50 mg (I50) (θ9), Estimate ± SE",[1]; stage 2 final model,−0.322 ± 0.0512
same,"Shape parameter for Frel (γ) (θ8), Estimate ± SE",[1]; stage 2 final model,0.857 ± 0.0684
same,"Vp/F (θ5) apparent volume of distribution of the peripheral compartment, Estimate ± SE",[1]; stage 2 final model,27.0 ± 2.03 L
same,"ka (θ1) absorption rate constant, Estimate ± SE",[1]; stage 2 final model,0.473 ± 0.0208 h⁻¹
same,"Logit for reduction in Frel at 50 mg (I50) (θ9), Estimate ± SE",[1]; updated stage 1 final model,−0.321 ± 0.0512
same,"Shape parameter for Frel (γ) (θ8), Estimate ± SE",[1]; updated stage 1 final model,0.853 ± 0.0693
same,"Vp/F (θ5) apparent volume of distribution of the peripheral compartment, Estimate ± SE",[1]; updated stage 1 final model,26.7 ± 1.89 L
same,"ka (θ1) absorption rate constant, Estimate ± SE",[1]; updated stage 1 final model,0.471 ± 0.0204 h⁻¹
same,change in exposure due to individual covariate (demographic) effects,"[1]; vs the reference NVAF subject, except severe renal impairment",< 25% and ≤ 25%
same,increase in AUC when co‐administered with diltiazem,"[2]; diltiazem, a moderate CYP3A4/P‐gp inhibitor",40%
same,increase in AUC when co‐administered with ketoconazole,"[2]; ketoconazole, a strong CYP3A4/P‐gp inhibitor",99%
same,"higher estimated AUCINF, mild renal impairment",[3],~ 16%
same,"higher estimated AUCINF, moderate renal impairment",[3],~29%
same,"higher estimated AUCINF, severe renal impairment",[3],~44%
same,substrate status,[4],substrate
same,pathway of plasma elimination,[5],metabolism primarily by cytochrome P450 3A4 (CYP3A4)
same,"ACS subjects (θ13) effect on Vc/F, Estimate ± SE",[6]; [10],−0.184 ± 0.0463
same,"Evening dosing (AM/PM = 2) (θ10) effect on ka, Estimate ± SE",[6]; [10],−0.436 ± 0.0237
same,"Female (θ15) effect on CLNR/F, Estimate ± SE",[6]; [10],−0.227 ± 0.0269
same,"NVAF subjects (θ12) effect on Vc/F, Estimate ± SE",[6]; [10],−0.0530 ± 0.0508
same,CL renal,"[6]; human, plasma, oral",26.7 mL/min
same,Vd/F,"[6]; human, plasma, oral",30 ± 1.04 L
same,"Age (θ14) effect on CLNR/F, Estimate ± SE",[6]; [11],−0.414 ± 0.0727
same,"D_WTB (θ11) baseline body weight effect on Vc/F, Estimate ± SE",[6]; [11],0.792 ± 0.0648
same,CL/F higher in Korean subjects,[6]; relative to non‐Asian subjects,3.3%
same,CL/F lower in Japanese subjects,[6]; relative to non‐Asian subjects,15.1%
same,CL/F lower in other Asian subjects,[6]; relative to non‐Asian subjects,4.3%
same,"change in daily AUCss, Japanese",[6]; [12],17.7%
same,"change in daily AUCss, Korean",[6]; [12],−3.2%
same,"change in daily AUCss, other Asian races",[6]; [12],4.5%
same,"change in population mean total CL/F, Japanese",[6]; [12],−15.1%
same,"change in population mean total CL/F, Korean",[6]; [12],3.3%
same,"change in population mean total CL/F, other Asian races",[6]; [12],−4.3%
same,CL/F apparent total clearance,"[6]; simple sum of CLR/F and CLNR/F, stage 2 final ad hoc model",3.62 ^a L/hour
same,"Logit for reduction in Frel at 50 mg (I50) (θ9), Estimate ± SE",[6]; stage 2 final ad hoc model,−0.327 ± 0.0519
same,"Shape parameter for Frel (γ) (θ8), Estimate ± SE",[6]; stage 2 final ad hoc model,0.875 ± 0.0779
same,"Vp/F (θ5) apparent volume of distribution of the peripheral compartment, Estimate ± SE",[6]; stage 2 final ad hoc model,27.3 ± 2.78 L
same,"ka (θ1) absorption rate constant, Estimate ± SE",[6]; stage 2 final ad hoc model,0.471 ± 0.0218 h⁻¹
same,oral bioavailability,[7],~ 50%
same,steady‐state volume of distribution,[7],~ 21 liters
same,time dependency of pharmacokinetics,[7],no time dependency
same,total clearance,[7],3.3 L/h
same,Renal clearance as share of total systemic clearance,"[7]; following intravenous administration, healthy subjects",~ 27%
same,half‐life,[7]; following oral administration,~ 12 hours
same,dose dependence of exposure,[7]; therapeutic dose range (2.5–10 mg),dose‐proportional increase in exposure
same,substrate status,[8],substrate
